EP2818472A1, “Imidazo[4,5-c]pyridine and pyrrolo[3,2-c]pyridine compounds as G-protein-coupled receptor kinase 5 (GRK5) modulators” (Max-Planck-Gesellschaft zur Förderung der Wissenschaften …, priority 2013, dated 2014)

What follows are compounds tested on beta-TC6 cells (assay: Insulin HTRF assay (relative activity Ar) in beta-TC6 cells). Details: Mus musculus, Beta-TC6, 4 h, insulin HTRF, supernatant of beta-TC6 cells, incubation with test compound at 37°C for 2, 3, 4h; read-out: Ar (relative activity).
Format: cell-based, mouse
Method in brief: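 beta-TC6 cells (15k/well, seeded 24 or 48 h) washed, then exposed to compound in induction buffer (0.5% DMSO final) for 2, 3 or 4 h at 37°C.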
`COCCCNc1nccc2[nH]c(-c3ccccc3)nc12` [Compound 340, N-(3-methoxypropyl)-2-phenyl-1H-imidazo[4,5-c]pyridin-4-amine] showed an Emax of 30 to 50%. In the case of `COc1cccc(Nc2nccc3[nH]c(-c4ccc(OC)c(OC)c4)nc23)c1` [Compound 341, 2-(3,4-dimethoxyphenyl)-N-(3-methoxyphenyl)-1H-imidazo[4,5-c]pyridin-4-amine], the Emax is reported as 50 to 100%. For `COc1ccc(-c2nc3c(Nc4ccccc4)nccc3[nH]2)cc1OC` [Compound 342, 2-(3,4-dimethoxyphenyl)-N-phenyl-1H-imidazo[4,5-c]pyridin-4-amine], the Emax was 50 to 100%. `COc1ccc(-c2nc3c(Nc4cccc(N(C)C)c4)nccc3[nH]2)cc1OC` [Compound 343, N1-[2-(3,4-dimethoxyphenyl)-1H-imidazo[4,5-c]pyridin-4-yl]-N3,N3-dimethyl-benzene-1,3-diamine] showed an Emax of 50 to 100%. `COc1ccc(-c2nc3c(NCC(C)C)nccc3[nH]2)cc1OC` [Compound 344, 2-(3,4-dimethoxyphenyl)-N-isobutyl-1H-imidazo[4,5-c]pyridin-4-amine] was tested, and the Emax was 30 to 50%. `COc1ccc(Nc2nccc3[nH]c(-c4ccc(OC)c(OC)c4)nc23)cc1` [Compound 345, 2-(3,4-dimethoxyphenyl)-N-(4-methoxyphenyl)-1H-imidazo[4,5-c]pyridin-4-amine] was tested, and the Emax was over 100%. Compound `COc1ccc(-c2nc3c(N4CCN(C)CC4)nccc3[nH]2)cc1OC` [Compound 346, 2-(3,4-dimethoxyphenyl)-4-(4-methylpiperazin-1-yl)-1H-imidazo[4,5-c]pyridine] has an Emax of 50 to 100%. With `COc1ccc(-c2nc3c(NCc4ccccc4)nccc3[nH]2)cc1OC` [Compound 347, N-benzyl-2-(3,4-dimethoxyphenyl)-1H-imidazo[4,5-c]pyridin-4-amine] the Emax was 50 to 100%. Work on `COc1ccc(-c2nc3c(NC4CCC(O)CC4)nccc3[nH]2)cc1OC` (centres unmarked) [Compound 348, 4-[[2-(3,4-dimethoxyphenyl)-1H-imidazo[4,5-c]pyridin-4-yl]amino]cyclohexanol] yielded an Emax of 30 to 50%. `COc1ccc(-c2nc3c(N(C)c4ccccc4)nccc3[nH]2)cc1OC` [Compound 349, 2-(3,4-dimethoxyphenyl)-N-methyl-N-phenyl-1H-imidazo[4,5-c]pyridin-4-amine] was tested, and the Emax was 30 to 50%. Compound `COc1ccc(-c2nc3c(NCc4ccc(N(C)C)cc4)nccc3[nH]2)cc1OC` [Compound 350, 2-(3,4-dimethoxyphenyl)-N-[(4-dimethylaminophenyl)methyl]-1H-imidazo[4,5-c]pyridin-4-amine] has an Emax of 30 to 50%. Work on `COc1ccc(-c2nc3c(Nc4cccc(S(C)(=O)=O)c4)nccc3[nH]2)cc1OC` [Compound 351, 2-(3,4-dimethoxyphenyl)-N-(3-methylsulfonylphenyl)-1H-imidazo[4,5-c]pyridin-4-amine] yielded an Emax of 50 to 100%. With `COc1ccc(-c2nc3c(Nc4cccc(O)c4)nccc3[nH]2)cc1OC` [Compound 352, 3-[[2-(3,4-dimethoxyphenyl)-1H-imidazo[4,5-c]pyridin-4-yl]amino]phenol] the Emax was over 100%. With `COc1ccc(-c2nc3c(N4CCOCC4)nccc3[nH]2)cc1OC` [Compound 353, 4-[2-(3,4-dimethoxyphenyl)-1H-imidazo[4,5-c]pyridin-4-yl]morpholine] the Emax was 50 to 100%. In the case of `COc1ccc(-c2nc3c(NCC4CC4)nccc3[nH]2)cc1OC` [Compound 354, N-(cyclopropylmethyl)-2-(3,4-dimethoxyphenyl)-1H-imidazo[4,5-c]pyridin-4-amine], the Emax is reported as 50 to 100%. For `COCCNc1nccc2[nH]c(-c3cccc(C(F)(F)F)c3)nc12` [Compound 355, N-(2-methoxyethyl)-2-[3-(trifluoromethyl)phenyl]-1H-imidazo[4,5-c]pyridin-4-amine], the Emax was 30 to 50%. `COc1ccc(Nc2nccc3[nH]c(-c4cccc(C(F)(F)F)c4)nc23)cc1` [Compound 356, N-(4-methoxyphenyl)-2-[3-(trifluoromethyl)phenyl]-1H-imidazo[4,5-c]pyridin-4-amine] showed an Emax of over 100%. `FC(F)(F)c1cccc(-c2nc3c(NCCN4CCOCC4)nccc3[nH]2)c1` [Compound 357, N-(2-morpholinoethyl)-2-[3-(trifluoromethyl)phenyl]-1H-imidazo[4,5-c]pyridin-4-amine] showed an Emax of 30 to 50%. `COc1cccc(Nc2nccc3[nH]c(-c4cccnc4)nc23)c1` [Compound 358, N-(3-methoxyphenyl)-2-(3-pyridyl)-1H-imidazo[4,5-c]pyridin-4-amine] gave an Emax of 50 to 100%. In the case of `CCN(CC)CCNC(=O)c1ccc(Nc2nccc3[nH]c(-c4cccnc4)nc23)cc1` [Compound 359, N-(2-diethylaminoethyl)-4-[[2-(3-pyridyl)-1H-imidazo[4,5-c]pyridin-4-yl]amino]benzamide], the Emax is reported as 30 to 50%. For `c1ccc(CNc2nccc3[nH]c(-c4cccnc4)nc23)cc1` [Compound 360, N-benzyl-2-(3-pyridyl)-1H-imidazo[4,5-c]pyridin-4-amine], the Emax was 0 to 30%. `COc1ccc(Nc2nccc3[nH]c(-c4cccc(O)c4)nc23)cc1` [Compound 362, 3-[4-(4-methoxyanilino)-1H-imidazo[4,5-c]pyridin-2-yl]phenol] was tested, and the Emax was 50 to 100%. In the case of `Oc1cccc(-c2nc3c(N4CCOCC4)nccc3[nH]2)c1` [Compound 363, 3-(4-morpholino-1H-imidazo[4,5-c]pyridin-2-yl)phenol], the Emax is reported as 30 to 50%. With `COc1cc(Nc2nccc3[nH]c(-c4ccc(O)cc4)nc23)cc(OC)c1OC` [Compound 364, 4-[4-(3,4,5-trimethoxyanilino)-1H-imidazo[4,5-c]pyridin-2-yl]phenol] the Emax was 50 to 100%. Work on `Oc1ccc(-c2nc3c(Nc4ccccc4)nccc3[nH]2)cc1` [Compound 365, 4-(4-anilino-1H-imidazo[4,5-c]pyridin-2-yl)phenol] yielded an Emax of 30 to 50%. Work on `CS(=O)(=O)Nc1cccc(Nc2nccc3[nH]c(-c4ccc(O)cc4)nc23)c1` [Compound 366, N-[3-[[2-(4-hydroxyphenyl)-1H-imidazo[4,5-c]pyridin-4-yl]amino]phenyl]methanesulfonamide] yielded an Emax of 30 to 50%. Work on `COc1cccc(-c2nc3c(Nc4cc(OC)c(OC)c(OC)c4)nccc3[nH]2)c1` [Compound 367, 2-(3-methoxyphenyl)-N-(3,4,5-trimethoxyphenyl)-1H-imidazo[4,5-c]pyridin-4-amine] yielded an Emax of 30 to 50%. `COc1cccc(Nc2nccc3[nH]c(-c4cccc(OC)c4)nc23)c1` [Compound 368, N,2-bis(3-methoxyphenyl)-1H-imidazo[4,5-c]pyridin-4-amine] was tested, and the Emax was 30 to 50%. Work on `COc1cccc(-c2nc3c(Nc4ccc(OC)c(OC)c4)nccc3[nH]2)c1` [Compound 369, N-(3,4-dimethoxyphenyl)-2-(3-methoxyphenyl)-1H-imidazo[4,5-c]pyridin-4-amine] yielded an Emax of over 100%. `COc1cccc(-c2nc3c(Nc4ccccc4)nccc3[nH]2)c1` [Compound 370, 2-(3-methoxyphenyl)-N-phenyl-1H-imidazo[4,5-c]pyridin-4-amine] showed an Emax of 30 to 50%. With `COc1cccc(-c2nc3c(NCCc4ccccn4)nccc3[nH]2)c1` [Compound 371, 2-(3-methoxyphenyl)-N-[2-(2-pyridyl)ethyl]-1H-imidazo[4,5-c]pyridin-4-amine] the Emax was 30 to 50%. Work on `COc1ccc(Nc2nccc3[nH]c(-c4cccc(OC)c4)nc23)cc1` [Compound 372, 2-(3-methoxyphenyl)-N-(4-methoxyphenyl)-1H-imidazo[4,5-c]pyridin-4-amine] yielded an Emax of 50 to 100%. `COc1cccc(-c2nc3c(Nc4cccc(C(F)(F)F)c4)nccc3[nH]2)c1` [Compound 373, 2-(3-methoxyphenyl)-N-[3-(trifluoromethyl)phenyl]-1H-imidazo[4,5-c]pyridin-4-amine] gave an Emax of 0 to 30%. Work on `COc1cccc(-c2nc3c(Nc4cccc(O)c4)nccc3[nH]2)c1` [Compound 374, 3-[[2-(3-methoxyphenyl)-1H-imidazo[4,5-c]pyridin-4-yl]amino]phenol] yielded an Emax of 50 to 100%. `COc1cccc(-c2nc3c(N4CCOCC4)nccc3[nH]2)c1` [Compound 375, 4-[2-(3-methoxyphenyl)-1H-imidazo[4,5-c]pyridin-4-yl]morpholine] showed an Emax of 30 to 50%. With `COc1cccc(-c2nc3c(NCC4CC4)nccc3[nH]2)c1` [Compound 376, N-(cyclopropylmethyl)-2-(3-methoxyphenyl)-1H-imidazo[4,5-c]pyridin-4-amine] the Emax was 30 to 50%. `COc1cc(Nc2nccc3[nH]c(-c4ccc(C)cc4)nc23)cc(OC)c1OC` [Compound 377, 2-(p-tolyl)-N-(3,4,5-trimethoxyphenyl)-1H-imidazo[4,5-c]pyridin-4-amine] gave an Emax of 30 to 50%. `COc1ccc(Nc2nccc3[nH]c(-c4ccc(C)cc4)nc23)cc1OC` [Compound 378, N-(3,4-dimethoxyphenyl)-2-(p-tolyl)-1H-imidazo[4,5-c]pyridin-4-amine] showed an Emax of 50 to 100%. With `COc1ccc(Nc2nccc3[nH]c(-c4ccc(C)cc4)nc23)cn1` [Compound 379, N-(6-methoxy-3-pyridyl)-2-(p-tolyl)-1H-imidazo[4,5-c]pyridin-4-amine] the Emax was 50 to 100%. Work on `Cc1ccc(-c2nc3c(Nc4ccccc4)nccc3[nH]2)cc1` [Compound 380, N-phenyl-2-(p-tolyl)-1H-imidazo[4,5-c]pyridin-4-amine] yielded an Emax of 30 to 50%. `CCN(CC)CCNC(=O)c1ccc(Nc2nccc3[nH]c(-c4ccc(C)cc4)nc23)cc1` [Compound 381, N-(2-diethylaminoethyl)-4-[[2-(p-tolyl)-1H-imidazo[4,5-c]pyridin-4-yl]amino]benzamide] showed an Emax of 50 to 100%. `COc1ccc(Nc2nccc3[nH]c(-c4ccc(C)cc4)nc23)cc1` [Compound 382, N-(4-methoxyphenyl)-2-(p-tolyl)-1H-imidazo[4,5-c]pyridin-4-amine] gave an Emax of 30 to 50%. `Cc1ccc(-c2nc3c(Nc4cccc(O)c4)nccc3[nH]2)cc1` [Compound 383, 3-[[2-(p-tolyl)-1H-imidazo[4,5-c]pyridin-4-yl]amino]phenol] was tested, and the Emax was 50 to 100%. Work on `Cc1ccc(-c2nc3c(Nc4cccc(NS(C)(=O)=O)c4)nccc3[nH]2)cc1` [Compound 384, N-[3-[[2-(p-tolyl)-1H-imidazo[4,5-c]pyridin-4-yl]amino]phenyl]methanesulfonamide] yielded an Emax of 30 to 50%.
